Assay results from PubChem BioAssay (NCI).
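Five concentrations, 48 hours, 96-well plates. GI50: concentration for 50% inhibition of growth. Definition used: TGI = concentration required for complete inhibition of growth.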

What was measured:
Assay in all cases: growth of human tumour cells (NCI), 48 h
MOLT-4 leukemia = tested on: MOLT-4 leukemia
HOP-62 NSCLC = tested on: HOP-62 NSCLC
MALME-3M melanoma = tested on: MALME-3M melanoma
OVCAR-4 ovarian = tested on: OVCAR-4 ovarian
IGROV1 ovarian = tested on: IGROV1 ovarian
SK-OV-3 ovarian = tested on: SK-OV-3 ovarian
UO-31 renal = tested on: UO-31 renal
SN12C renal = tested on: SN12C renal
ACHN renal = tested on: ACHN renal
SF-295 CNS = tested on: SF-295 CNS

| Structure (SMILES) | TGI (MOLT-4 leukemia) [µM] | TGI (HOP-62 NSCLC) [µM] | TGI (MALME-3M melanoma) [µM] | TGI (OVCAR-4 ovarian) [µM] | TGI (IGROV1 ovarian) [µM] | TGI (SK-OV-3 ovarian) [µM] | TGI (UO-31 renal) [µM] | TGI (SN12C renal) [µM] | TGI (ACHN renal) [µM] | TGI (SF-295 CNS) [µM] | GI50 (MOLT-4 leukemia) [µM] | GI50 (HOP-62 NSCLC) [µM] | GI50 (MALME-3M melanoma) [µM] | GI50 (OVCAR-4 ovarian) [µM] | GI50 (IGROV1 ovarian) [µM] | GI50 (SK-OV-3 ovarian) [µM] | GI50 (UO-31 renal) [µM] | GI50 (SN12C renal) [µM] | GI50 (ACHN renal) [µM] | GI50 (SF-295 CNS) [µM] |
| --- | --- | --- | --- | --- | --- | --- | --- | --- | --- | --- | --- | --- | --- | --- | --- | --- | --- | --- | --- | --- |
| CC1=CC(=O)N2C(OC[C@@H]2c2ccccc2)O1 (stereo not given in full) | > 100 | > 100 | > 100 | > 100 | > 100 | > 100 | > 100 | > 100 | > 100 | > 100 |  |  |  |  |  |  |  |  |  |  |
| CC(=O)/C(=C/N1CCN(C(=O)c2ccco2)C1=S)C(=O)c1ccccc1 | > 50 | 27.7 | 46.7 | 37.4 | 28.4 | > 50 | 18.1 | 15.2 | 17.6 | > 50 | 15.9 | 11.7 | 9.28 | 20.1 | 10.9 | 17.5 | 8.8 | 7.65 | 6.9 | 19.3 |
| CC1/C(=N/O)CC(c2ccccc2)N(N=O)C1c1ccccc1 (stereo not given) | > 100 | > 100 | > 100 | > 100 | > 100 | > 100 | > 100 | > 100 | > 100 | > 100 |  |  |  |  |  |  |  |  |  |  |
| CCC(C)N1CN(c2ccccc2)C2(CCN(CCCC3(c4ccc(F)cc4)OCCO3)CC2)C1=O (stereo not given) | 19.5 | 27.6 | 9.5 | > 49.4 | 30.7 | 56 | 10.7 | 18.9 | 14.9 | 10.6 |  |  |  |  |  |  |  |  |  |  |
| CCOc1ccccc1NC(=O)C1=C(C)NC(C)=C(C(=O)Nc2ccccc2OCC)C1c1cccc([N+](=O)[O-])c1 | > 100 | > 100 | > 100 | > 100 | > 100 | > 100 | > 100 | > 100 | > 100 | > 100 |  |  |  |  |  |  |  |  |  |  |
| COC(=O)c1cc(C)[nH]c2c(C)cc3nc4ccccc4c3c12 | 42.2 | 25.1 | 28.5 | 25.3 | 23.9 | 26.5 | 19.1 | 30.8 | 25.4 | 14.1 | 4.83 | 12.4 | 14.7 | 12.5 | 6.01 | 13.4 | 4.46 | 11.7 | 11.6 | 3.41 |
| Cc1ccc(C)c(NC(=O)C(=O)Nn2c(=S)[nH]c3ccccc3c2=O)c1 | > 100 | > 100 | > 100 | > 100 | > 100 | > 100 | > 100 | > 100 | > 100 | > 100 |  |  |  |  |  |  |  |  |  |  |
| C[C@H]1CC[C@@H]2[C@@H](C)[C@H]3[C@H](C[C@H]4[C@@H]5CC=C6C[C@@H](O)CC[C@]6(C)[C@H]5CC[C@]34C)N2C1 | > 100 | > 100 | > 100 | > 100 | > 100 | > 100 | > 100 | > 100 | > 100 | > 100 |  |  |  |  |  |  |  |  |  |  |
| CN(C)C(=S)/N=c1\ss/c(=N\S(=O)(=O)c2ccccc2)n1C | > 100 | > 100 | > 100 | > 100 | > 100 | > 100 | > 100 | > 100 | > 100 | > 100 |  |  |  |  |  |  |  |  |  |  |
| C[C@H]1CCC2C(OC(=O)[C@@H]2CN(C)C)[C@]2(C)C(=O)C=CC12O (stereo not given in full) | 20.2 | 45.6 | 16.7 | 33.4 | 42.5 | 38.6 | 30.8 | 14.6 | 5.74 | 31.1 |  |  |  |  |  |  |  |  |  |  |
| COc1ccc(C2C3=C(COC3=O)N(CCO)c3cc4c(cc32)CCC4)cc1 (stereo not given) | > 50 | > 50 | > 50 | > 50 | 18.4 | > 50 | > 50 | > 50 | > 50 | 6.7 | 2.2 | 9.02 | 3.06 | 5.46 | 2.15 | 8.78 | 5.86 | 19 | 24 | 1.49 |
| CC1(C2CCC3(C)C(C2)C3Sc2ccccc2)OCCO1 (stereo not given) | 38.4 | 45.8 | 41.8 | 81.7 | > 100 | 88.6 | 31.4 | 46.8 | 46.9 | 46.5 |  |  |  |  |  |  |  |  |  |  |
| C=C(CN1CCN(c2ccc(F)c(Cl)c2)CC1)c1ccc(C(=O)Nc2ccccc2N)cc1 | 4 | 16.4 | 37.2 | > 100 | 7.86 | > 100 | 12.1 | 59.5 | > 100 | > 100 | 0.764 | 3.09 | 4.35 | > 100 | 1.88 | > 100 | 2.28 | 5.1 | 6.43 | 6.95 |
| CNC(=O)c1cc(-c2ccc(F)cc2)cc(-c2ccc(S(=O)(=O)N3CCCC3)cc2)c1N | > 25 | > 25 | > 25 | > 25 | > 25 | > 25 | > 25 | > 25 | > 25 | > 25 | 15.5 | > 25 | > 25 | 16.1 | > 25 | > 25 | 11.3 | > 23.8 | 21.5 | 10.6 |
| C=CCCC(=O)CC(=O)OCc1ccccc1 | > 100 | > 100 | > 100 | > 100 | > 100 | > 100 | > 100 | > 100 | > 100 | > 100 |  |  |  |  |  |  |  |  |  |  |
| CNc1nc(-c2ccc3c(N)n[nH]c3c2)cc(N2C[C@@H](C(=O)NC3CCCCC3)CC[C@H]2C)n1 | > 32.5 | 17.9 | 10.7 | 23.1 | 14.9 | 9.97 | 13.7 | 20.2 | 19.9 | 15.8 | 1.84 | 3.26 | 0.302 | 3.6 | 2.45 | 0.495 | 0.854 | 3.04 | 2.81 | 2.61 |
| CCN1CCC(O)(/C=C/c2ccccc2)C(C(=O)/C=C/c2ccccc2)C1 (stereo not given) | 5.38 | 28.4 | 5.09 | 8.01 | 3.78 | 19.7 | 21.7 | 3.7 | 3.23 | 9.73 |  |  |  |  |  |  |  |  |  |  |
| C1CC[N-]CC1.CC(=N\O)/C(C)=N/O.CC(=N\O)/C(C)=N/O.C[CH-]C(C)O.[Co+2] | 42.2 | 85.9 | 29.7 | > 100 | > 100 | > 100 | > 100 | > 100 | 81.2 | > 100 | 17.4 | 21.7 | 15.2 | 33.1 | 31.7 | 89 | 42.9 | 40.1 | 23.8 | 88.5 |
| CC1=C(SCCC(=O)OC(C[Se]C2=C(C)C(=O)c3ccccc3C2=O)C(=O)NC(C)(C)C)C(=O)c2ccccc2C1=O (stereo not given) | 1.31 | 1.68 | 3.89 | 2.76 | 2.1 | 2.74 | 2.15 | 2.99 | 2.9 | 1.21 | 0.274 | 0.32 | 2.01 | 1.45 | 0.771 | 1.43 | 0.68 | 1.47 | 1.56 | 0.315 |
| COC(=O)C#CC(N)=O | 62.6 | > 100 | 19.1 | > 100 | > 100 | > 100 | > 100 | > 100 | > 100 | > 100 |  |  |  |  |  |  |  |  |  |  |
| CSc1nc2ccc(C)cc2cc1/C=C1/C=C(c2ccccc2)NC1=O | > 100 | 11.7 | 25.9 | 1.03 | 24.1 | > 100 | 12.4 | 32.3 | 5.54 | 15 | 15.5 | 2.42 | 3.08 | 0.296 | 2.71 | 4.83 | 2.58 | 4.53 | 1.04 | 1.44 |
| CN1CCN(c2nc3cc(F)ccc3n3cccc23)CC1 | 81.8 | > 100 | 62.4 | > 100 | 87.6 | > 100 | > 100 | > 100 | > 100 | 52.9 |  |  |  |  |  |  |  |  |  |  |
| CC1=C2C3OC(=O)C(C)C3C(O)C[C@@]2(C)C(=O)CC1 (stereo not given in full) | > 100 | > 100 | > 100 | > 100 | > 100 | > 100 | > 100 | > 100 | > 100 | > 100 |  |  |  |  |  |  |  |  |  |  |
| Cn1cc(-c2csc(-c3cn(C(=O)OC(C)(C)C)c4ccccc34)n2)c2cccnc21 | 46.8 | 30.4 | 40.8 | 47 | 31 | 48.2 | 21.3 | 21.6 | 20.4 | 14.5 | 8.88 | 12.1 | 14.6 | 6.73 | 6.5 | 10.1 | 3.46 | 6.45 | 7.33 | 3.42 |
